Assay results from patent US11247972B2, “Compositions and methods for treating toxoplasmosis, cryptosporidiosis, and other apicomplexan protozoan related diseases” (University of Washington through its Center for …, priority 2010, dated 2022).

Legend:
TgCDPK1 = TgCDPK1 (Toxoplasma gondii, UniProt Q9BJF5); format: biochemical
PfCDPK1 = PfCDPK1 (Plasmodium falciparum (isolate 3D7), UniProt P62344); test: biochemical; settings: read-out: PfCDPK1 (% inhibition @ 3 uM)
PfCDPK4 = PfCDPK4 (Plasmodium falciparum (isolate 3D7), UniProt Q8IBS5); test: biochemical; settings: read-out: PfCDPK4 (% inhibition @ 3 uM)

TgCDPK1, sequence (Q9BJF5 1-507): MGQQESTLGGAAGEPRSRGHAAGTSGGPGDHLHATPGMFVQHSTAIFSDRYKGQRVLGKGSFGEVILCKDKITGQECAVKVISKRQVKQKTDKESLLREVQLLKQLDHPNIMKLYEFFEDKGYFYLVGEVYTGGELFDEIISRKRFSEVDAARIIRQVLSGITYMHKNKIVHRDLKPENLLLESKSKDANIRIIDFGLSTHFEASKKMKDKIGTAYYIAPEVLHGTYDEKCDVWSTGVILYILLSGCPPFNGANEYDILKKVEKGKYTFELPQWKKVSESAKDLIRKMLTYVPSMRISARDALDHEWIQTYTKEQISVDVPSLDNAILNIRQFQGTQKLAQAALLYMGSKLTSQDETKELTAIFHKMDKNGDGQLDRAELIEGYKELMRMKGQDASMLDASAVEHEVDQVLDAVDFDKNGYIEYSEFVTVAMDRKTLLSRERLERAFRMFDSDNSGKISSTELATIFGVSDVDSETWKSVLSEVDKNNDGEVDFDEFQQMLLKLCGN

| SMILES | relative potency TgCDPK1 versus CpCDPK1 (in words) (TgCDPK1) | inhibition at 3 µM (PfCDPK1) [%] | inhibition at 3 µM (PfCDPK4) [%] |
| --- | --- | --- | --- |
| CC(C)n1nc(-c2ccc(Cl)cc2)c2c(N)ncnc21 [Compound 7a, 3-(4-chlorophenyl)-1-isopropyl-1H-pyrazolo[3,4-d]pyrimidin-4-amine] | more potent against TgCDPK1 than CpCDPK1 | 97 | 86 |
| CSc1cccc(-c2nn(C(C)C)c3ncnc(N)c23)c1 [Compound 7ab, 1-isopropyl-3-(3-(methylthio)phenyl)-1H-pyrazolo[3,4-d]pyrimidin-4-amine] | more potent against TgCDPK1 than CpCDPK1 | – | – |
| CC(C)n1nc(-c2cccc(Cl)c2)c2c(N)ncnc21 [Compound 7b, 3-(3-chlorophenyl)-1-isopropyl-1H-pyrazolo[3,4-d]pyrimidin-4-amine] | more potent against TgCDPK1 than CpCDPK1 | 72 | 85 |
| CC(C)c1ccc(-c2nn(C(C)C)c3ncnc(N)c23)cc1 [Compound 7d, 1-isopropyl-3-(4-isopropylphenyl)-1H-pyrazolo[3,4-d]pyrimidin-4-amine] | more potent against TgCDPK1 than CpCDPK1 | 90 | 80 |
| COc1cc(-c2nn(C(C)C)c3ncnc(N)c23)cc(OC)c1OC [Compound 7l, 1-isopropyl-3-(3,4,5-trimethoxyphenyl)-1H-pyrazolo[3,4-d]pyrimidin-4-amine] | equipotent or slightly selective for CpCDPK1 | – | – |
| Nc1ncnc2c1c(-c1ccc(-c3ccccc3)c(F)c1)nn2CC1CCNCC1 [Compound 73, 3-(2-fluorobiphenyl-4-yl)-1-(piperidin-4-ylmethyl)-1H-pyrazolo[3,4-d]pyrimidin-4-amine] | – | 87 | 14 |
| N#Cc1cccc(-c2ccc(-c3nn(CC4CCNCC4)c4ncnc(N)c34)cc2)c1 [Compound 74, 4′-(4-amino-1-(piperidin-4-ylmethyl)-1H-pyrazolo[3,4-d]pyrimidin-3-yl)biphenyl-3-carbonitrile] | – | 97 | 68 |
| Cc1ccc(S(=O)(=O)Nc2ccc(-c3nn(-c4ccccc4)c4ncnc(N)c34)cc2)cc1 [Compound 75, N-(4-(4-amino-1-phenyl-1H-pyrazolo[3,4-d]pyrimidin-3-yl)phenyl)-4-methylbenzenesulfonamide] | – | 75 | 5 |
| COC(=O)Nc1nc2ccc(C(O)c3ccccc3)cc2[nH]1 (centres unmarked) [Compound 82] | – | 56 | 4 |
| Cc1cccc2[nH]c(-c3nc(C(C)(C)C)n4ccnc(N)c34)cc12 [Compound 83] | – | 96 | 93 |
| CC(C)(C)c1nc(-c2ccc3ccccc3c2)c2c(N)nccn12 [Compound 84] | – | 101 | 99 |
| CC(C)n1nc(-c2ccc3cc(OC(=O)c4cccc(Cl)c4)ccc3c2)c2c(N)ncnc21 [Compound 85] | – | 99 | 72 |
| O=C(NCCO)Nc1nc2ccc(C(=O)c3ccccc3)cc2[nH]1 [Compound 90] | – | 77 | 64 |
| O=C(NCCC1CCCNC1)Nc1nc2ccc(C(=O)c3ccccc3)cc2[nH]1 (centres unmarked) [Compound 91] | – | 73 | 59 |
| Nc1nc2ccc(C(=O)c3ccccc3)cc2[nH]1 [Compound 92] | – | 68 | 51 |
| CC(C)(C)OC(=O)NCCC(=O)Nc1nc2ccc(C(=O)c3ccccc3)cc2[nH]1 [Compound 93] | – | 64 | 49 |
| NCCC(=O)Nc1nc2ccc(C(=O)c3ccccc3)cc2[nH]1 [Compound 94] | – | 71 | 51 |
| Nc1ncnc2c1c(I)nn2CC1CCNCC1 [Compound 98] | – | 85 | 9 |
| Nc1ncnc2c1cnn2CC1CCNCC1 [Compound 99] | – | 70 | 5 |

| SMILES | relative potency TgCDPK1 versus CpCDPK1 (in words) (TgCDPK1) | inhibition at 3 µM (PfCDPK1) [%] | inhibition at 3 µM (PfCDPK4) [%] |
| --- | --- | --- | --- |
| Nc1ncnc2c1c(-c1ccc(-c3ccccc3)cc1)nn2CC1CCNCC1 [Compound 100] | – | 101 | 68 |
| Nc1ncnc2c1c(-c1ccc(-c3nn(CC4CCNCC4)c4ncnc(N)c34)cc1)nn2CC1CCNCC1 [Compound 101] | – | 79 | 14 |
| NCCCC(=O)Nc1nc2ccc(C(=O)c3ccccc3)cc2[nH]1 [Compound 103] | – | 75 | 58 |
| NCCCCCC(=O)Nc1nc2ccc(C(=O)c3ccccc3)cc2[nH]1 [Compound 105] | – | 71 | 76 |
| O=C(c1ccccc1)c1ccc2nc(NC(=O)[C@@H]3CCCN3)[nH]c2c1 [Compound 107] | – | 65 | 52 |
| N[C@@H](Cc1ccc(O)cc1)C(=O)Nc1nc2ccc(C(=O)c3ccccc3)cc2[nH]1 [Compound 109] | – | 54 | 30 |
| N[C@@H](Cc1c[nH]cn1)C(=O)Nc1nc2ccc(C(=O)c3ccccc3)cc2[nH]1 [Compound 111] | – | 63 | 41 |
| O=C(CC1CCNCC1)Nc1nc2ccc(C(=O)c3ccccc3)cc2[nH]1 [Compound 113] | – | 65 | 61 |
| O=C(CCCC1CCNCC1)Nc1nc2ccc(C(=O)c3ccccc3)cc2[nH]1 [Compound 115] | – | 71 | 84 |
| O=C(CCC1CCNCC1)Nc1nc2ccc(C(=O)c3ccccc3)cc2[nH]1 [Compound 117] | – | 71 | 74 |
| Cc1cc(-c2nn(CC3CCNCC3)c3ncnc(N)c23)ccc1-c1ccccc1 [Compound 118] | – | 97 | 81 |
| Nc1ncnc2c1c(-c1ccc3cc(O)ccc3c1)nn2CC1CCNCC1 [Compound 119] | – | 102 | 101 |
| Nc1ncnc2c1c(-c1ccc3oc(-c4ccccc4)nc3c1)nn2CC1CCNCC1 [Compound 120] | – | 101 | 90 |
| Cn1ncc2cc(-c3nn(CC4CCNCC4)c4ncnc(N)c34)ccc21 [Compound 121] | – | 93 | 93 |
| Nc1ncnc2c1c(-c1ccc3nccnc3c1)nn2CC1CCNCC1 [Compound 122] | – | 97 | 32 |
| CC(C)(C)n1ncc2c(N)ncnc21 [Compound 123] | – | 62 | 4 |
| CC(C)COc1ccc2cc(-c3nn(CC4CCN(C)CC4)c4ncnc(N)c34)ccc2c1 [Compound 124] | – | 98 | 93 |
| Nc1ncnc2c1c(-c1ccc3ncccc3c1)nn2CC1CCNCC1 [Compound 125] | – | 89 | 93 |
| O=C(NCCC1CCNCC1)Nc1nc2ccc(C(=O)c3ccccc3)cc2[nH]1 [Compound 126] | – | 76 | 65 |

| SMILES | relative potency TgCDPK1 versus CpCDPK1 (in words) (TgCDPK1) | inhibition at 3 µM (PfCDPK1) [%] | inhibition at 3 µM (PfCDPK4) [%] |
| --- | --- | --- | --- |
| O=C(NCCCCO)Nc1nc2ccc(C(=O)c3ccccc3)cc2[nH]1 [Compound 127] | – | 68 | 46 |
| NCCCCNC(=O)Nc1nc2ccc(C(=O)c3ccccc3)cc2[nH]1 [Compound 128] | – | 79 | 64 |
| CC(C)(C)n1nc(Br)c2c(N)ncnc21 [Compound 129] | – | 79 | 9 |
| CC(C)COc1ccc2cc(-c3nn(C(C)(C)C)c4ncnc(N)c34)ccc2c1 [Compound 130] | – | 95 | 47 |
| CC(C)(C)n1nc(-c2ccc3oc(-c4ccccc4)nc3c2)c2c(N)ncnc21 [Compound 131] | – | 100 | 38 |
| COc1ccc(-c2nn(C(C)(C)C)c3ncnc(N)c23)cc1C [Compound 132] | – | 96 | 96 |
| Cc1cc(-c2nn(C(C)(C)C)c3ncnc(N)c23)ccc1-c1ccccc1 [Compound 133] | – | 79 | 26 |
| Cc1cccc(-c2nn(C(C)(C)C)c3ncnc(N)c23)c1 [Compound 134] | – | 89 | 87 |
| COc1ccc2cc(-c3nn(C(C)(C)C)c4ncnc(N)c34)ccc2c1 [Compound 135] | – | 96 | 97 |
| CC(C)(C)n1nc(-c2ccc(-c3ccccc3)cc2)c2c(N)ncnc21 [Compound 136] | – | 90 | 16 |
| CCOc1ccc2cc(-c3nn(C(C)(C)C)c4ncnc(N)c34)ccc2c1 [Compound 137] | – | 95 | 95 |
| Cn1ccc2cc(-c3nn(C(C)(C)C)c4ncnc(N)c34)ccc21 [Compound 139] | – | 99 | 96 |
| CC(C)(C)n1nc(-c2ccccc2)c2c(N)ncnc21 [Compound 140] | – | 98 | 90 |
| Cn1ncc2cc(-c3nn(C(C)(C)C)c4ncnc(N)c34)ccc21 [Compound 142] | – | 98 | 97 |
| CC(C)(C)n1nc(-c2ccc3ncccc3c2)c2c(N)ncnc21 [Compound 143] | – | 97 | 97 |
| COc1ccc(-c2nn(CC3CCNCC3)c3ncnc(N)c23)cc1C [Compound 144] | – | 95 | 94 |
| Nc1ncnc2c1c(-c1ccccc1)nn2CC1CCNCC1 [Compound 145] | – | 93 | 63 |
| Nc1ncnc2c1c(-c1ccc3ccccc3c1)nn2CC1CCNCC1 [Compound 147, 3-(naphthalen-2-yl)-1-(piperidin-4-ylmethyl)-1H-pyrazolo[3,4-d]pyrimidin-4-amine] | – | 100 | 99 |
